Test results: PubChem BioAssay AID1349 (Sanford-Burnham Center for Chemical Genomics, 2008)
Calls of active or inactive are those of the source.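 Rule for the calls: active = survival above the stress-only control level plus 20 points, here above 50%; inactive = the rest.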

System: CSM14.1 tunicamycin-induced death, Annexin V/PI flow, 72 h
Test: rescue of CSM14.1 cells from tunicamycin, SAR follow-up, orthogonal assay for ER stress death inhibitor project, undifferentiated CSM14.1, flow cytometry (AID 1349)
Details: at 25 µM; hits give high values

Row | Structure (SMILES) | survival
1 | COc1ccc(C2CC(=O)C3=C(C2)Nc2ccccc2NC3c2cccc(Oc3ccccc3)c2)cc1OC (stereo unspecified) | 54%
2 | COc1ccc(C2CC(=O)C3=C(C2)Nc2ccccc2NC3c2cc(C)ccc2C)cc1 (stereo unspecified) | 70%
3 | CC1(C)CC(=O)C2=C(C1)Nc1ccccc1NC2c1ccc(-c2ccccc2)cc1 (stereo unspecified) | 92%
4 | CCOc1cc(C2Nc3ccccc3NC3=C2C(=O)CC(c2ccc(OC)cc2)C3)cc(Cl)c1O (stereo unspecified) | 52%
5 | COc1ccc(C2CC(=O)C3=C(C2)Nc2ccccc2NC3c2cccc(Br)c2)cc1OC (stereo unspecified) | 67%
6 | CCOc1cccc(C2Nc3ccccc3NC3=C2C(=O)CC(c2ccc(OC)cc2)C3)c1 (stereo unspecified) | 49% (inactive)
7 | CCCOc1ccc(C2Nc3ccccc3NC3=C2C(=O)CC(c2ccc(OC)c(OC)c2)C3)cc1 (stereo unspecified) | 74%
8 | O=C1CC(c2ccccc2)CC2=C1C(c1c(F)cccc1Cl)Nc1ccccc1N2 (stereo unspecified) | 58%
9 | COc1ccc(C2CC(=O)C3=C(C2)Nc2ccccc2NC3c2ccccc2C(F)(F)F)cc1OC (stereo unspecified) | 65%
10 | COc1ccc(C2CC(=O)C3=C(C2)Nc2ccccc2NC3c2cccc(C(F)(F)F)c2)cc1OC (stereo unspecified) | 82%
11 | CSc1ccc(C2Nc3ccccc3NC3=C2C(=O)CC(c2ccccc2)C3)cc1 (stereo unspecified) | 62%
